Assay results published in patent US20070049591A1, “Inhibitors of MAPK/Erk Kinase” (KALYPSYS, INC., priority 2005, published 2007).

Each compound was assayed against T1, human phospho-Mek1 / non-phosphorylated Mek1 (Homo sapiens, UniProt Q02750) (assay: In vitro Mek1 Kinase Assay). Details: recombinant GST/His6-tagged Mek1, 2 μM ATP, 2 hours at 30° C., PKLight luminescence readout.
T1 construct: GST (N); His6 (C); purchased Upstate 14-429 (phospho-Mek1) or 14-420 (non-phosphorylated Mek1)
Assay type: biochemical
Experimental: In vitro Mek1 Kinase Assay
2.5 μl of Mek1 kinase buffer (10 mM MOPS [pH 7.2], 25 mM sodium glycerophosphate, 5 mM EGTA [pH 8.0], 1 mM sodium orthovanadate, 1 mM dithiothreitol, 10 mM MgCl2, 0.1% Brij-35, 0.3 mg/ml bovine serum albumin) containing either 5 ng of high specific activity, recombinant N-terminal GST-tagged, C-terminal His6-tagged human phospho-Mek1 (Upstate Cat. 14-429), or 200 ng of low specific activity, non-phosphorylated Mek1 (Upstate Cat. 14-420), is dispensed into one well of a 1536 multi-well white solid plate. 50 nl of 100× concentration of test compound in dimethyl sulfoxide (DMSO) is dispensed to the well by passive pin transfer and incubated for 15 minutes at room temperature (22° C.). 2.5 μl of Mek1 kinase buffer containing 2 μM ATP is then dispensed and the kinase reaction is allowed to incubate at 30° C. for 2 hours. The assay plates are lidded and maintained in a humidified environment. After 2 hours, 2.5 μl of PKLight protein kinase assay reagent (Cambrex) is dispensed. After an additional 5 minute incubation at room temperature, luminescence activity is measured on a suitable multi-mode plate reader. Inhibition of Mek1 kinase causes an associated increase in luminescence activity that is proportional to compound concentration. Negative control activity is measured with DMSO lacking any test compound. Positive control activity is measured with (R)—N— (2,3-dihydroxypropoxy)-3,4-fluoro4-iodophenylamino)benzamide [Thompson, N. and Lyons, J., Curr Opin Pharmacol, 5:350-356, 2005 (PD-0325901)]. Efficacy is measured as a percentage of positive control activity.

T1 sequence (Q02750 whole entry): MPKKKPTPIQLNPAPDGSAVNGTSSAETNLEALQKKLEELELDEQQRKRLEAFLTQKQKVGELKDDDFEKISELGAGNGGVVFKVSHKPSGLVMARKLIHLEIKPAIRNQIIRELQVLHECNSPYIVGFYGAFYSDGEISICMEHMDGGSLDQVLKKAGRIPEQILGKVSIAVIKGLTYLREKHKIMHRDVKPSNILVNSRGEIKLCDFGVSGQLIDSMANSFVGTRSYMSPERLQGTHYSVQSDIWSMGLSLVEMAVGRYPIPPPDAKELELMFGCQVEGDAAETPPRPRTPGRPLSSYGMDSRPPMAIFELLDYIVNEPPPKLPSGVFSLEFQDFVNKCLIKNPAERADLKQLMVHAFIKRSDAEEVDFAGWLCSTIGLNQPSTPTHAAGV

Compound | IC50 [µM]
CC(=O)c1ccc(-c2cnc3ccc(NCc4cccs4)nn23)s1 [Example 8, 1-(5-(6-(thiophen-2-ylmethylamino)imidazo[1,2-b]pyridazin-3-yl)thiophen-2-yl)ethanone] | > 10
O=C(O)c1ccc(-c2cnc3ccc(NC4CCC(O)CC4)nn23)cc1 (stereo not shown) [Example 15, 4-(6-(4-hydroxycyclohexylamino)imidazo[1,2-b]pyridazin-3-yl)benzoic acid] | ≤ 10
N#Cc1ccc(-c2cnc3ccc(NCCCO)nn23)cc1 [Example 18, 4-(6-(3-hydroxypropylamino)imidazo [1,2-b]pyridazin-3-yl)benzonitrile] | ≤ 10
N#Cc1ccc(-c2cnc3ccc(NCCc4cccnc4)nn23)cc1 [Example 20, 4-(6-(2-(pyridin-3-yl)ethylamino)imidazo[1,2-b]pyridazin-3-yl)benzonitrile] | ≤ 10
Cc1c([N+](=O)[O-])c2ccc(O)cc2n1-c1ccccc1 [Example 2, 2-methyl-3-nitro-1-phenyl-1H-indol-6-ol] | ≤ 10
CC1CCN(c2ncnc3[nH]cnc23)CC1 [Example 6, 6-(4-methylpiperidin-1-yl)-9H-purine] | > 10
COc1cc(OC)c2c(c1)ncc1c(C)nn(-c3ccccc3)c12 [Example 7, 7,9-dimethoxy-3-methyl-1-phenyl-1H-pyrazolo[4,3-c]quinoline] | ≤ 10
CCN(c1ncnc2[nH]cnc12)C1CCCCC1 [Example 4, N-cyclohexyl-N-ethyl-9H-purin-6-anime] | ≤ 10
O=C(O)c1ccc(-c2cnc3ccc(NCc4ccc(F)cc4)nn23)cc1 [Example 10, 4-(6-(4-fluorobenzylamino)imidazo[1,2-b]pyridazin-3-yl)benzoic acid] | ≤ 10
CC(C)(C)n1nc(-c2ccc(F)cc2)c2c(N)ncnc21 [Example 3, 1-tert-butyl-3-(4-fluorophenyl)-1H-pyrazolo[3,4-d]pyrimidin-4-amine] | ≤ 10
c1nc(NC2CCCC2)c2nc[nH]c2n1 [Example 16, N-cyclopentyl-9H-purin-6-amine] | > 10
CCCNc1ccc2ncc(-c3ccc(C(=O)O)cc3)n2n1 [Example 22, 4-(6-(propylamino)imidazo[1,2-b]pyridazin-3-yl)benzoic acid] | > 10
c1ccc2c(c1)CCN2c1ncnc2[nH]cnc12 [Example 5, 6-(indolin-1-yl)-9H-purine] | > 10
O=C(O)c1ccc(-c2cnc3ccc(NCc4cccs4)nn23)cc1 [Example 9, 4-(6-(thiophen-2-ylmethylamino)imidazo[1,2-b]pyridazin-3-yl)benzoic acid] | ≤ 10

The remaining lines, values ahead:

IC50 [µM] | Compound
≤ 10 | N#Cc1ccc(-c2cnc3ccc(NCCc4ccccn4)nn23)cc1 [Example 19, 4-(6-(2-(pyridin-2-yl)ethylamino)imidazo[1,2-b]pyridazin-3-yl)benzonitrile]
≤ 10 | N#Cc1ccc(-c2cnc3ccc(NC4CCOCC4)nn23)cc1 [Example 12, 4-(6-(tetrahydro-2H-pyran-4-ylamino)imidazo[1,2-b]pyridazin-3-yl)benzonitrile]
> 10 | c1nc2nc[nH]c(NC3CCCCCC3)c-2n1 [Example 17, N-cycloheptyl-9H-purin-6-amine]
≤ 10 | Cn1cc(-c2cnc3ccc(NCc4cccs4)nn23)cn1 [Example 11]
≤ 10 | c1ccc2c(c1)[nH]c1ncnc(N3CCOCC3)c12 [Example 1, 4-(9H-pyrimido[4,5-b]indol-4-yl)morpholine]
> 10 | COc1cncc(-c2cnc3ccc(NC4CCOCC4)nn23)c1 [Example 14, 3-(5-methoxypyridin-3-yl)-N-(tetrahydro-2H-pyran-4-yl)imidazo[1,2-b]pyridazin-6-amine]
> 10 | CN(C)CCNc1ccn2ncc(-c3ccc(Cl)cc3)c2n1 [Example 21, N1-(3-(4-chlorophenyl)pyrazolo[1,5-a]pyrimidin-5-yl)-N2,N2-dimethylethane-1,2-diamine]
≤ 10 | O=C(O)c1ccc(-c2cnc3ccc(NC4CCOCC4)nn23)cc1 [Example 13, 4-(6-(tetrahydro-2H-pyran-4-ylamino)imidazo[1,2-b]pyridazin-3-yl)benzoic acid]
